Experimental data: the supplement of paper PMC10307832

How the values were obtained:
Assay in all cases: relative viability (nuclei count vs DMSO), 5 days (fraction); higher = more cells survive
[1] = compound: COc1ccc(-c2ccc3c(N4CCOC[C@@H]4C)nc(N4CCOC[C@@H]4C)nc3n2)cc1CO [AZD8055] + COc1cccc2cc(-c3nc([C@H]4CC[C@H](C(=O)O)CC4)n4ncnc(N)c34)[nH]c12 [OSI-027] (partner 0.5 µM)
How it was run: (§1)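 Relative viability is defined as nuclei in treated wells over nuclei in vehicle wells. Duplicate plates were run and medians reported. Lung cancer cell lines in 1536-well plates were dosed by pin tool one day after seeding, with one drug or with a fixed anchor-drug dose plus five library-drug doses (not always all listed) in √10 steps, and nuclei were counted after 5 days.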

[2] = compound: COc1ccc(-c2ccc3c(N4CCOC[C@@H]4C)nc(N4CCOC[C@@H]4C)nc3n2)cc1CO [AZD8055] + NC(=O)Nc1cc(-c2cccc(F)c2)sc1C(=O)N[C@H]1CCCNC1 [AZD7762] (partner 0.2 µM)
How it was run: as §1

[3] = compound: COc1ccc(-c2ccc3c(N4CCOC[C@@H]4C)nc(N4CCOC[C@@H]4C)nc3n2)cc1CO [AZD8055] + COc1cc2c(Oc3ccc(NC(=O)C4(C(=O)Nc5ccc(F)cc5)CC4)cc3F)ccnc2cc1OCCCN1CCOCC1 [Foretinib] (partner 0.25 µM)
How it was run: as §1

[4] = compound: COc1ccc(-c2ccc3c(N4CCOC[C@@H]4C)nc(N4CCOC[C@@H]4C)nc3n2)cc1CO [AZD8055] + Nc1nc2[nH]cc(CCc3ccc(C(=O)N[C@@H](CCC(=O)O)C(=O)O)cc3)c2c(=O)[nH]1 [Pemetrexed] (partner 0.2 µM)
How it was run: as §1

Cell Line	relative viability ([1]; first compound 0.01 µM)	relative viability ([1]; first compound 0.03162 µM)	relative viability ([1]; first compound 0.1 µM)	relative viability ([1]; first compound 0.3162 µM)	relative viability ([1]; first compound 1 µM)	relative viability ([2]; first compound 0.01 µM)	relative viability ([2]; first compound 0.03162 µM)	relative viability ([2]; first compound 0.1 µM)	relative viability ([2]; first compound 0.3162 µM)	relative viability ([2]; first compound 1 µM)	relative viability ([3]; first compound 0.01 µM)	relative viability ([3]; first compound 0.03162 µM)	relative viability ([3]; first compound 0.1 µM)	relative viability ([3]; first compound 0.3162 µM)	relative viability ([3]; first compound 1 µM)	relative viability ([4]; first compound 0.01 µM)	relative viability ([4]; first compound 0.03162 µM)	relative viability ([4]; first compound 0.1 µM)	relative viability ([4]; first compound 0.3162 µM)	relative viability ([4]; first compound 1 µM)
NCI-H2342	0.598	0.621	0.571	0.529	0.594	0.422	0.459	0.308	0.376	0.43	0.999	1.05	0.801	0.538	0.578	0.748	0.785	0.542	0.49	0.549
A-427	0.49	0.491	0.545	0.493	0.434	0.762	0.597	0.529	0.5	0.427	0.954	0.983	0.856	0.491	0.416	1.04	0.895	0.835	0.555	0.587
H3255	0.706	0.572	0.587	0.454	0.423	1.03	0.951	0.803	0.471	0.413	0.562	0.769	0.786	0.418	0.308	0.636	0.562	0.487	0.443	0.364
NCI-H1734	0.665	0.553	0.493	0.319	0.225	0.549	0.361	0.273	0.181	0.15	0.893	0.748	0.565	0.312	0.221	0.45	0.375	0.41	0.385	0.323
NCI-H1993	0.545	0.502	0.625	0.353	0.568	0.646	0.377	0.402	0.366	0.516	0.696	0.584	0.51	0.503	0.577	0.519	0.542	0.459	0.434	0.473
NCI-H1437	0.973	0.88	0.753	0.354	0.389	1.16	1.1	1.12	0.568	0.494	1.38	1.37	1.24	0.869	0.482	0.324	0.308	0.276	0.23	0.224
201T	0.786	0.746	0.676	0.484	0.383	0.621	0.413	0.5	0.362	0.374	1.34	1.08	0.892	0.391	0.328	0.312	0.317	0.359	0.293	0.293
NCI-H358	0.871	0.708	0.576	0.29	0.164	0.701	0.557	0.523	0.308	0.203	1.03	0.887	0.585	0.264	0.181	0.184	0.176	0.158	0.145	0.129
ChaGo-K-1	0.584	0.576	0.624	0.56	0.541	0.957	0.832	0.828	0.703	0.645	1.07	0.862	0.81	0.61	0.621	0.26	0.262	0.256	0.251	0.271
LOU-NH91	0.775	0.797	0.66	0.569	0.556	0.684	0.702	0.621	0.557	0.555	0.982	0.891	0.761	0.562	0.561	0.466	0.433	0.5	0.507	0.469
HOP-62	0.902	0.795	0.87	0.585	0.453	0.677	0.418	0.512	0.167	0.111	1.01	1.01	1.09	0.609	0.521	0.312	0.29	0.338	0.35	0.242
NCI-H1915	0.664	0.551	0.656	0.547	0.459	0.777	0.48	0.686	0.425	0.454	1.12	1.04	1.01	0.574	0.527	0.52	0.5	0.507	0.419	0.372
NCI-H3122	1.09	0.846	0.854	0.323	0.236	1.13	1.01	0.594	0.351	0.187	0.97	1.02	1.05	0.396	0.401	0.229	0.228	0.231	0.227	0.225
NCI-H1651	0.871	0.682	0.603	0.32	0.413	0.499	0.431	0.424	0.237	0.161	0.702	0.774	0.575	0.363	0.263	0.645	0.585	0.477	0.388	0.367
NCI-H838	0.377	0.404	0.383	0.262	0.31	1.06	0.932	0.85	0.711	0.659	1	0.913	0.597	0.398	0.347	0.228	0.236	0.231	0.18	0.201
NCI-H596	0.685	0.731	0.582	0.413	0.315	1.04	0.776	0.632	0.567	0.489	0.79	0.551	0.474	0.319	0.335	0.452	0.456	0.409	0.402	0.443
